The results in this text go back to PMC10111413 (ACS Infectious Diseases, 2023).

For one assay, the system named is A. baumannii ATCC 17978. It is filed as cell-based. The settings on record: CLSI, cation-adjusted MHB, 18 h at 37 °C, three technical replicates. As to the method: (§1) VIII. Antimicrobial testing
(§2) Table S2. Minimum inhibitory concentrations (MICs) determined against panel of previously characterized colistin-resistant A. baumannii clinical isolates5
(§3) Strain Relacidine A (3a) Relacidine B (4a) Relacidamide (5) Colistin […]
(§4) aMIC values given in µg/ml.
(§5) All minimum inhibitory concentrations were determined according to Clinical and Standards Laboratory Institute (CLSI) guidelines. Blood agar plates were inoculated from glycerol stocks of the different A. baumannii strains used and then incubated for 16 h at 37 °C . Individually grown colonies were subsequently used to inoculate 5 mL aliquots of TSB that were then incubated at 37 °C. In parallel, the lipopeptide antibiotics DMSO stocks to be assessed were serially diluted with cation-adjusted MHB in polypropylene 96-well plates (50 µL in each well). Colistin sulfate stocks were dissolved in water before being diluted with cation-adjusted MHB. The A. baumannii inoculated TSB aliquots were incubated until an OD600 of around 0.5 was reached. The bacterial suspensions were then diluted with cation-adjusted MHB (2 x 10^5 CFU mL-1) and added to the microplates containing the test compounds (50 µL to each well). The well-plates were sealed with an adhesive membrane and after 18 h of incubation at 37 °C visually inspected for bacterial growth. MIC values reported are based on three technical replicates and defined as the lowest concentration of the compound that prevented visible

A further assay deals with A. baumannii BV172. It is filed as cell-based. The note with it: CLSI, cation-adjusted MHB, 18 h at 37 °C, three technical replicates. As to the method:
as §1, §2, §3, §4, §5

The test system of a further assay is A. baumannii BV173. It is filed as cell-based. The note with it: CLSI, cation-adjusted MHB, 18 h at 37 °C, three technical replicates. As to the method:
as §1, §2, §3, §4, §5

In a further assay the test system is A. baumannii BV94. It is filed as cell-based. The note with it: colistin-resistant clinical isolate; CLSI, cation-adjusted MHB, 18 h at 37 °C, three technical replicates. As to the method: as §1, §2, §3, §4, §5
The subject of another assay is A. baumannii BV95. It is filed as cell-based. The settings on record: CLSI, cation-adjusted MHB, 18 h at 37 °C, three technical replicates. As to the method: as §1, §2, §3, §4, §5
Another assay relates to A. baumannii HUMC1. It is filed as cell-based. The note with it: CLSI, cation-adjusted MHB, 18 h at 37 °C, three technical replicates. As to the method:
as §1, §2, §3, §4, §5

The subject of another assay is A. baumannii LAC-4. It is filed as cell-based. The settings on record: CLSI, cation-adjusted MHB, 18 h at 37 °C, three technical replicates. As to the method:
as §1, §2, §3, §4, §5

The next assay deals with A. baumannii NCTC 13304. It is filed as cell-based. The note with it: CLSI, cation-adjusted MHB, 18 h at 37 °C, three technical replicates. As to the method: as §1, §2, §3, §4, §5
Another assay relates to A. baumannii NCTC 13420. It is filed as cell-based. The settings on record: CLSI, cation-adjusted MHB, 18 h at 37 °C, three technical replicates. As to the method:
as §1, §2, §3, §4, §5

In assay [1] the test system is colistin-resistant A. baumannii isolate BV94. Description: G. mellonella larvae infection model. It is filed as in vivo. The note with it: injected 1 h postinfection, 10^5 cfu A. baumannii BV94 per larva, ten larvae per group, 37 °C. An excerpt: Given the promising in vitro activity of relacidamide (5), along with its high serum stability, low hemolytic activity, and ease of synthesis, we further evaluated its efficacy in an established in vivo infection model using G. mellonella larvae. The G. mellonella infection model has gained popularity in recent years and provides a convenient method to assess the in vivo effectiveness and toxicity of novel antibiotics.[15],[16] […] The larvae were first injected with either vehicle (PBS) or A. baumannii BV94 suspension in the right second proleg. The moth larvae were then injected in the left second proleg with either PBS (untreated), colistin at 100 mg/kg or 200 mg/kg, or relacidamide (5) at 100 mg/kg or 200 mg/kg. The G. mellonella larvae were then incubated for 72 h, and their survival was assessed twice per day. […]
Ten G. mellonella larvae (Serum Therapeutics Inc., average weight of 0.265 g) per group were infected using a 10 μL injection in the right second proleg with mid-log phase (OD600 = 0.5)-growing bacteria resuspended and diluted in phosphate-buffered saline (PBS) to achieve the target inoculum of 10^5 colony forming unit (cfu) per larva. […] The viability of the larvae was assessed twice a day up to a total of 72 h postinfection by checking for movement. […]

For colistin [reference compound], in the assay on A. baumannii ATCC 17978, the “MIC A. baumannii ATCC 17978” value came out at 1 µg/mL. For the same substance, the “MIC A. baumannii BV172” value against A. baumannii BV172 was above 64 µg/mL. For the same substance, the “MIC A. baumannii BV173” value against A. baumannii BV173 turned out to be 16 µg/mL. Moreover, the “MIC A. baumannii BV94” value in the assay with A. baumannii BV94 is above 64 µg/mL. In addition, the “MIC A. baumannii BV95” value with A. baumannii BV95 was found to be 32 µg/mL. Further, the “MIC A. baumannii HUMC1” value in the assay on A. baumannii HUMC1 turned out to be 1 µg/mL. Moreover, the “MIC A. baumannii LAC-4” value in the assay with A. baumannii LAC-4 was determined as 0.5 µg/mL. The “MIC A. baumannii NCTC 13304” value with A. baumannii NCTC 13304 came to 1 µg/mL. Also, the “MIC A. baumannii NCTC 13420” value in the assay with A. baumannii NCTC 13420 came out at 0.5 µg/mL. Moreover, the “survival of G. mellonella larvae after 72 h” value in assay [1] (100 mg/kg) and in [1] (200 mg/kg) was “none” in each case.
